# Measured values reported in patent publication US20180353445A1, “METHODS AND COMPOSITIONS RELATING TO PROTEASOME INHIBITOR RESISTANCE” (Whitehead Institute for Biomedical Research, priority 2017, published 2018).
# How the values were obtained:
# Type in all cases: cell-based, human
# T47D cells = assay: Cell viability, T47D cells with doxycycline-inducible PSMD2 shRNA (KD) vs control
# HepG2 cells = assay: Cell viability assay (resazurin), HepG2 cells with shRNA knockdown of proteasome subunits vs control
# From the text: FIGS. 2A-2F: Reducing expression of 19S subunits increases the levels of active 20S proteasomes and protects cancer cells from proteasome (FIG. 2A) HepG2 cells were infected with 80 shRNAs targeting 20 different subunits of the proteasome and 10 control shRNAs. Infected cells were then exposed to […] bortezomib and cell number was examined 4 days later. The plot represents the average (+/−SEM) of four different hairpins targeting the indicated proteasome subunits and their relative cell number following bortezomib treatment. 19S subunits are depicted with orange bars, the control with a blue bar and 20S subunits with green bars. […] (FIG. 2C) The relative cell number of cells harboring a control shLacZ or each of 4 individual shRNAs targeting shPSMD2 was analyzed 4 days after addition of the indicated concentrations of bortezomib. (FIG. 2D) HepG2 cells stably expressing four different shRNAs targeting the PSMD2 subunit and a control shRNA (lacZ) were analyzed by western blot for the indicated proteins 24 hours with or without bortezomib treatment. […] Proteasome complex levels were detected by immunoblot analysis and 20S proteasome activity by measuring the hydrolysis of Suc-LLVY-AMC by substrate overlay assays. * p<0.05 **p<0.01. […]
# cancer cell lines (GDSC) = assay: Genomics of Drug Sensitivity in Cancer (GDSC) data analysis, IC50 of bortezomib and MG132 vs 19S expression / sigma score; conditions: GDSC database
# From the text: In some aspects, whether a cancer cell is considered resistant or sensitive to a particular agent may be determined by comparing the IC50 of the agent for the cancer cell with the IC50 of the agent as measured for each cell line in a panel of diverse cancer cell lines. Cancer cells for which the agent has an IC50 in the 10th percentile of IC50 values determined for the agent on a diverse panel of cancer cell lines may be considered sensitive, while cancer cells for which the agent has an IC50 in the 90th percentile of IC50 values determined for the agent on a diverse panel of cancer cell lines may be considered resistant to the agent.
# We asked if this might correlate with changes in 19S subunit expression. We analyzed the Genomics of Drug Sensitivity in Cancer (GDSC) database, a public resource of transcriptional data and drug responsiveness collected from a spectrum of human cancer cell lines with diverse tissue origins and diverse oncogenic lesions (Garnett et al., 2012). […]
# Further details of methods used in GDSC dataset analysis: Gene expression and drug sensitivity data was downloaded from the World Wide Web at subdomain cancerrxgene.org. […] For each proteasomal subunit gene, a-score was calculated for each cell line. […] P-values were calculated by t-test, comparing the logEC50s between the 3 sigma and not 3 sigma.
compound,measurement,setting,value
CC(C)C[C@H](NC(=O)[C@H](Cc1ccccc1)NC(=O)c1cnccn1)B(O)O [bortezomib],resistance of cells harboring PSMD2 shRNA vs parental line (EC50),"T47D cells; T47D, transient PSMD2 reduction",EC50 values increased considerably
same,resistance after transient reduction of PSMD2,T47D cells; doxycycline-regulated PSMD2 shRNA,significantly increased resistance
same,proliferation of control cells,"HepG2 cells; 12 nM, control HepG2 cells",completely inhibited
same,increase of EC50 values in cell lines with shRNA-reduced PSMD2 vs parental line,"HepG2 cells; HepG2, four shRNAs targeting PSMD2, 4 days",three to six-fold
same,average IC50 value in 3-Sigma cell lines vs all other lines,cancer cell lines (GDSC),considerably higher
